According to PubChem BioAssay AID248 (DTP/NCI, 2004):
“And” between values parts separate entries of the source, which are not always exact repeats. Identical values can stand only once. Inconclusive results and toxic doses are left out. No stated cut-off is given here; in the data, active means T/C of 150% or more; inactive means T/C below 125%.

Test system: L1210 leukemia ip in BDF1 mice, survival T/C
Test: NCI In Vivo Anticancer Drug Screen. Data for tumor model L1210 Leukemia (intraperitoneal) in B6D2F1 (BDF1) mice
Conditions: endpoint: mean survival time, higher = longer survival
Summary of the method: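 Tumor cells were implanted, animals were treated, and survival was followed. The result divides the treated measurement by the vehicle-control measurement.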

[1] = dose: 50.0 mg/kg/injection, schedule: Q01DX001 (ip), vehicle: saline
[2] = dose: 100.0 mg/kg/injection, schedule: Q01DX001 (ip), vehicle: saline
[3] = dose: 200.0 mg/kg/injection, schedule: Q01DX001 (ip), vehicle: saline
[4] = dose: 400.0 mg/kg/injection, schedule: Q01DX001 (ip), vehicle: saline
[5] = dose: 100.0 mg/kg/injection, schedule: Q04DX003 (ip), vehicle: saline with Tween-80
[6] = dose: 200.0 mg/kg/injection, schedule: Q04DX003 (ip), vehicle: saline with Tween-80
[7] = dose: 400.0 mg/kg/injection, schedule: Q04DX003 (ip), vehicle: saline with Tween-80
[8] = dose: 100.0 mg/kg/injection, schedule: Q04DX002 (ip), vehicle: saline
[9] = dose: 200.0 mg/kg/injection, schedule: Q04DX002 (ip), vehicle: saline
[10] = dose: 100.0 mg/kg/injection, schedule: Q04DX002 (ip), vehicle: Klucel (hydroxypropylcellulose) (HPC)
[11] = dose: 200.0 mg/kg/injection, schedule: Q04DX002 (ip), vehicle: Klucel (hydroxypropylcellulose) (HPC)
[12] = dose: 50.0 mg/kg/injection, schedule: Q04DX002 (ip), vehicle: Klucel (hydroxypropylcellulose) (HPC)
[13] = dose: 100.0 mg/kg/injection, schedule: Q01DX001 (ip), vehicle: carboxymethylcellulose (CMC)
[14] = dose: 200.0 mg/kg/injection, schedule: Q01DX001 (ip), vehicle: carboxymethylcellulose (CMC)
[15] = dose: 400.0 mg/kg/injection, schedule: Q01DX001 (ip), vehicle: carboxymethylcellulose (CMC)

Measured: T/C

O=C(COc1cccc(Cl)c1)NCc1cccc(NC(=O)c2cccc(S(=O)(=O)F)c2)c1
inactive: dose: 100.0 mg/kg/injection, schedule: Q01DX001 (ip), vehicle: gum acacia 97 % of control | dose: 200.0 mg/kg/injection, schedule: Q01DX001 (ip), vehicle: gum acacia 93 % of control | dose: 400.0 mg/kg/injection, schedule: Q01DX001 (ip), vehicle: gum acacia 98 % of control

O=P1(Nc2ccc(Cl)cc2)OCC2(CO1)COP(=O)(Nc1ccc(Cl)cc1)OC2 (centres undefined)
inactive: [1] 98 % of control | [2] 93 % of control | [3] 101 % of control | [4] 117 % of control

C#CCCCCCl
inactive: dose: 100.0 mg/kg/injection, schedule: Q01DX001 (ip), vehicle: other 103 % of control | dose: 200.0 mg/kg/injection, schedule: Q01DX001 (ip), vehicle: other 104 % of control | dose: 400.0 mg/kg/injection, schedule: Q01DX001 (ip), vehicle: other 108 % of control

N#CC1(C#N)OC1c1ccccc1Cl (centres undefined)
inactive: dose: 10.0 mg/kg/injection, schedule: Q04DX002 (ip), vehicle: Klucel (hydroxypropylcellulose) (HPC) 100 % of control | dose: 20.0 mg/kg/injection, schedule: Q04DX002 (ip), vehicle: Klucel (hydroxypropylcellulose) (HPC) 100 % of control

N/N=C(\c1ccccc1)c1ccccn1
inactive: dose: 55.0 mg/kg/injection, schedule: Q01DX Z (ip), vehicle: methylcellulose (MC) 103 % of control | dose: 83.0 mg/kg/injection, schedule: Q01DX Z (ip), vehicle: methylcellulose (MC) 97 % of control | dose: 125.0 mg/kg/injection, schedule: Q01DX Z (ip), vehicle: methylcellulose (MC) 90 % of control

CCOC(=O)Sc1ncnc2nc[nH]c12
inactive: dose: 10.0 mg/kg/injection, schedule: Q01DX Z (ip), vehicle: carboxymethylcellulose (CMC) 117 % of control

c1ccc([P+](C2=NNCC2)(c2ccccc2)c2ccccc2)cc1
inactive: dose: 6.25 mg/kg/injection, schedule: Q01DX009 (ip), vehicle: Klucel (hydroxypropylcellulose) (HPC) 105 % of control | dose: 12.5 mg/kg/injection, schedule: Q01DX009 (ip), vehicle: Klucel (hydroxypropylcellulose) (HPC) 118 % of control | dose: 25.0 mg/kg/injection, schedule: Q01DX009 (ip), vehicle: Klucel (hydroxypropylcellulose) (HPC) 105 % of control and 109 % of control

COc1ccc(-c2nc3ncnc(N)c3[nH]2)cc1
inactive: dose: 12.5 mg/kg/injection, schedule: Q01DX001 (ip), vehicle: saline with Tween-80 102 % of control | dose: 25.0 mg/kg/injection, schedule: Q01DX001 (ip), vehicle: saline with Tween-80 109 % of control | dose: 50.0 mg/kg/injection, schedule: Q01DX001 (ip), vehicle: saline with Tween-80 106 % of control

Nc1ccc(Cl)cc1C(=O)c1ccccc1
inactive: dose: 25.0 mg/kg/injection, schedule: Q04DX002 (ip), vehicle: DMSO 95 % of control | dose: 50.0 mg/kg/injection, schedule: Q04DX002 (ip), vehicle: DMSO 89 % of control | dose: 100.0 mg/kg/injection, schedule: Q04DX002 (ip), vehicle: DMSO 106 % of control and 88 % of control

C=CCNc1nnnn1CC=C
inactive: [5] 102 % of control | [6] 102 % of control | [7] 96 % of control

Cc1cc2cc3n(c2nn1)N=CCC3
inactive: [8] 106 % of control | [9] 103 % of control

COc1cc([N+](=O)[O-])ccc1NC(=O)Nc1cccc(C(F)(F)F)c1
inactive: dose: 100.0 mg/kg/injection, schedule: Q01DX009 (ip), vehicle: gum acacia 92 % of control | dose: 200.0 mg/kg/injection, schedule: Q01DX009 (ip), vehicle: gum acacia 92 % of control

CCCCS(=O)(=O)N(CCC)CCC
inactive: dose: 100.0 mg/kg/injection, schedule: Q04DX002 (ip), vehicle: saline with Tween-80 93 % of control | dose: 200.0 mg/kg/injection, schedule: Q04DX002 (ip), vehicle: saline with Tween-80 93 % of control | dose: 400.0 mg/kg/injection, schedule: Q04DX002 (ip), vehicle: saline with Tween-80 97 % of control

CC(C)(O)C/C=C/c1ccccc1
inactive: [5] 103 % of control | [6] 103 % of control | [7] 106 % of control

CC(C)(C)c1ccc(S(=O)(=O)c2ccc(C(C)(C)C)c([N+](=O)[O-])c2)cc1[N+](=O)[O-]
inactive: [10] 101 % of control | [11] 92 % of control | dose: 400.0 mg/kg/injection, schedule: Q04DX002 (ip), vehicle: Klucel (hydroxypropylcellulose) (HPC) 105 % of control

Cc1ccc(S(=O)(=O)Nc2ccccc2-c2nc3ccc([N+](=O)[O-])cc3c(=O)o2)cc1
inactive: dose: 100.0 mg/kg/injection, schedule: Q01DX009 (ip), vehicle: saline with Tween-80 104 % of control | dose: 200.0 mg/kg/injection, schedule: Q01DX009 (ip), vehicle: saline with Tween-80 96 % of control

Cc1cn(O)c2nc(N)nc(=O)c-2n1
inactive: dose: 25.0 mg/kg/injection, schedule: Q01DX001 (ip), vehicle: Klucel (hydroxypropylcellulose) (HPC) 97 % of control | dose: 50.0 mg/kg/injection, schedule: Q01DX001 (ip), vehicle: Klucel (hydroxypropylcellulose) (HPC) 103 % of control | dose: 100.0 mg/kg/injection, schedule: Q01DX001 (ip), vehicle: Klucel (hydroxypropylcellulose) (HPC) 100 % of control and 101 % of control

CCN(CCCl)CC1C(c2ccccc2)C1c1ccccc1 (centres undefined)
inactive: dose: 25.0 mg/kg/injection, schedule: Q04DX002 (ip), vehicle: Klucel (hydroxypropylcellulose) (HPC) 94 % of control | [12] 87 % of control

CC(=O)NC(C)C(N)=O (centres undefined)
inactive: [8] 108 % of control | [9] 105 % of control | dose: 400.0 mg/kg/injection, schedule: Q04DX002 (ip), vehicle: saline 96 % of control

CC1=NC(C)(C)CO1
inactive: [2] 101 % of control | [3] 97 % of control | [4] 95 % of control

CCCCNC(=O)Nc1ccc(C)cc1
inactive: [13] 100 % of control | [14] 103 % of control | [15] 97 % of control

O=c1c(O)c(-c2ccc(O)c(O)c2)oc2cc(O)cc(O)c12
inactive: dose: 25.0 mg/kg/injection, schedule: Q01DX009 (ip), vehicle: saline 115 % of control | dose: 50.0 mg/kg/injection, schedule: Q01DX009 (ip), vehicle: saline 105 % of control | dose: 100.0 mg/kg/injection, schedule: Q01DX009 (ip), vehicle: saline 103 % of control | dose: 200.0 mg/kg/injection, schedule: Q01DX009 (ip), vehicle: saline 104 % of control and 120 % of control

O=C(c1cccc([N+](=O)[O-])c1)c1sc2ccccc2c1O
inactive: [12] 90 % of control | [10] 93 % of control | [11] 88 % of control

COc1ccc(C(C#N)N(C)C)cc1OC (centres undefined)
inactive: [1] 100 % of control | [2] 100 % of control

CCC1([N+](=O)[O-])COP(=O)(NCc2ccncc2)OC1 (centres undefined)
inactive: [13] 98 % of control | [14] 98 % of control | [15] 96 % of control

Cc1nccnc1N/N=C\c1ccc(N(CCCl)CCCl)cc1
inactive: [13] 104 % of control | [14] 96 % of control | [15] 93 % of control

CCCCOc1c(Cl)c(Cl)c(OP(=O)(OCCCC)OCCCC)c(Cl)c1Cl
inactive: dose: 100.0 mg/kg/injection, schedule: Q04DX002 (ip), vehicle: other 103 % of control | dose: 200.0 mg/kg/injection, schedule: Q04DX002 (ip), vehicle: other 88 % of control | dose: 400.0 mg/kg/injection, schedule: Q04DX002 (ip), vehicle: other 103 % of control

CN1CC(CO)C=C2c3cccc4[nH]cc(c34)CC21 (centres undefined)
inactive: dose: 25.0 mg/kg/injection, schedule: Q01DX009 (ip), vehicle: alcohol 100 % of control | dose: 25.0 mg/kg/injection, schedule: Q04DX003 (ip), vehicle: alcohol 98 % of control | dose: 50.0 mg/kg/injection, schedule: Q01DX009 (ip), vehicle: alcohol 118 % of control | dose: 50.0 mg/kg/injection, schedule: Q04DX003 (ip), vehicle: alcohol 103 % of control | dose: 100.0 mg/kg/injection, schedule: Q01DX009 (ip), vehicle: alcohol 123 % of control | dose: 100.0 mg/kg/injection, schedule: Q04DX003 (ip), vehicle: alcohol 101 % of control | dose: 200.0 mg/kg/injection, schedule: Q01DX009 (ip), vehicle: alcohol 107 % of control | dose: 200.0 mg/kg/injection, schedule: Q04DX003 (ip), vehicle: alcohol 98 % of control | dose: 400.0 mg/kg/injection, schedule: Q04DX003 (ip), vehicle: alcohol 109 % of control
